Measured values as given in US20230159532A1, “PARATHYROID HORMONE (PTH) RECEPTOR ANTAGONISTS AND USES THEREOF” (Crinetics Pharmaceuticals, Inc., priority 2021, published 2023).

Target: T1, human PTHR1 receptor (Homo sapiens, UniProt Q03431)
T1 construct: purchased Eurofins HTS030M
T1 sequence (Q03431 27-593): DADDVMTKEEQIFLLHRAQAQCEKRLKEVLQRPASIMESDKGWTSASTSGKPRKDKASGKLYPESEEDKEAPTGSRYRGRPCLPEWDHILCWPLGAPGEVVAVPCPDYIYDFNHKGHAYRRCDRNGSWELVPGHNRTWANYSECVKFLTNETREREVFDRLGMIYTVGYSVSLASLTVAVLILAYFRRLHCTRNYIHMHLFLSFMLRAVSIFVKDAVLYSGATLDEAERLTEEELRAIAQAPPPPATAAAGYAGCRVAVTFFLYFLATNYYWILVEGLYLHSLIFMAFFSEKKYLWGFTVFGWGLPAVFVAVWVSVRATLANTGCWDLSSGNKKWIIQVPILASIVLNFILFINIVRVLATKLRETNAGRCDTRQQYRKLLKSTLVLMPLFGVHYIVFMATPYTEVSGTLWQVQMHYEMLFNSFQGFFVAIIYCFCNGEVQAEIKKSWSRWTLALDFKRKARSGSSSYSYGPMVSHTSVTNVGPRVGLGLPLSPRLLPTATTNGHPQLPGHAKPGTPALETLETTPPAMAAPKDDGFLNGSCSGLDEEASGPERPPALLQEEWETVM
Experiment: Competitive antagonist binding assay for hPTH-R1 (radioactive competition binding, SPA beads)
Conditions: human PTHR1 membranes, [125I]-[Nle8,18,Tyr34]-PTH(1-34) 0.2 nM, 90 minutes at room temperature; read-out: hPTHR1 Ki
How it was run: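 Displacement of 0.2 nM radioiodinated [Nle8,18,Tyr34]-PTH(1-34) from membrane-bound human PTHR1 measured by scintillation proximity after 90 min at room temperature. Compounds typically 0-10,000 nM final, pH 7.4 HEPES/Mg/Ca buffer with BSA and detergent. Ki calculated from competition data.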

Compound | Ki [nM]
CCN1C(=O)N(c2ccc(NCCNC)cc2F)c2cc(Cl)ccc2-c2cc(Cl)cnc21 [2-8, 4,13-dichloro-8-ethyl-10-(2-fluoro-4-{[2-(methylamino)ethyl]amino}phenyl)-6,8,10-triazatricyclo[9.4.0.0^2,7]pentadeca-1(11),2(7),3,5,12,14-hexaen-9-one] | < 100
[2-({2-[(4-{13-cyano-8-ethyl-4-fluoro-9-oxo-6,8,10-triazatricyclo[9.4.0.0^2,7]pentadeca-1(11),2(7),3,5,12,14-hexaen-10-yl}-3,5-difluorophenyl)amino]ethyl}amino)ethyl]urea [1-169] | < 100
CN1C(=O)N(c2c(F)cc(NCCN)cc2F)c2cc(Cl)ccc2-c2cc(Cl)cnc21 [1-33, 10-{4-[(2-aminoethyl)amino]-2,6-difluorophenyl}-4,13-dichloro-8-methyl-6,8,10-triazatricyclo[9.4.0.0^2,7]pentadeca-1(11),2(7),3,5,12,14-hexaen-9-one] | < 100
CCN1C(=O)N(c2c(F)cc(NCCN3CCOCC3)cc2F)c2cc(C#N)ccc2-c2cc(Cl)cnc21 [1-148, 4-chloro-10-(2,6-difluoro-4-{[2-(morpholin-4-yl)ethyl]amino}phenyl)-8-ethyl-9-oxo-6,8,10-triazatricyclo[9.4.0.0^2,7]pentadeca-1(11),2(7),3,5,12,14-hexaene-13-carbonitrile] | 100 to 1000
CCN1C(=O)N(c2c(F)cc(NCCNCCO)cc2F)c2cc(C#N)cnc2-c2cc(F)cnc21 [3-13, 8-[2,6-difluoro-4-({2-[(2-hydroxyethyl)amino]ethyl}amino)phenyl]-10-ethyl-14-fluoro-9-oxo-3,8,10,12-tetraazatricyclo[9.4.0.0^2,7]pentadeca-1(11),2(7),3,5,12,14-hexaene-5-carbonitrile] | < 100
CCN1C(=O)N(c2c(F)cc(NCCN[C@H]3C[C@H](O)C3)cc2F)c2cc(C#N)ccc2-c2cc(F)cnc21 [1-222, 10-{2,6-difluoro-4-[(2-{[(1r,3r)-3-hydroxycyclobutyl]amino}ethyl)amino]phenyl}-8-ethyl-4-fluoro-9-oxo-6,8,10-triazatricyclo[9.4.0.0^2,7]pentadeca-1(11),2(7),3,5,12,14-hexaene-13-carbonitrile] | < 100
CCN1C(=O)N(c2c(F)cc(NCCN[C@@H](CO)C(=O)O)cc2F)c2cc(C#N)ccc2-c2cc(Cl)cnc21 [1-210, (2S)-2-({2-[(4-{4-chloro-13-cyano-8-ethyl-9-oxo-6,8,10-triazatricyclo[9.4.0.0^2,7]pentadeca-1(11),2(7),3,5,12,14-hexaen-10-yl}-3,5-difluorophenyl)amino]ethyl}amino)-3-hydroxypropanoic acid] | < 100
CCN1C(=O)N(c2c(F)cc(NCCNC[C@@H](C)O)cc2F)c2cc(C#N)ccc2-c2cc(F)cnc21 [1-203, 10-{2,6-difluoro-4-[(2-{[(2R)-2-hydroxypropyl]amino}ethyl)amino]phenyl}-8-ethyl-4-fluoro-9-oxo-6,8,10-triazatricyclo[9.4.0.0^2,7]pentadeca-1(11),2(7),3,5,12,14-hexaene-13-carbonitrile] | < 100
Cc1cc(C#N)cc2c1-c1cc(F)cnc1N(C)C(=O)N2c1c(F)cc(NCCNCCO)cc1F [1-112, 10-[2,6-difluoro-4-({2-[(2-hydroxyethyl)amino]ethyl}amino)phenyl]-4-fluoro-8,15-dimethyl-9-oxo-6,8,10-triazatricyclo[9.4.0.0^2,7]pentadeca-1(11),2(7),3,5,12,14-hexaene-13-carbonitrile] | < 100
CCN1C(=O)N(c2c(F)cc(NCCNCC(=O)O)cc2F)c2cc(C#N)ccc2-c2cc(Cl)cnc21 [1-215, 2-({2-[(4-{4-chloro-13-cyano-8-ethyl-9-oxo-6,8,10-triazatricyclo[9.4.0.0^2,7]pentadeca-1(11),2(7),3,5,12,14-hexaen-10-yl}-3,5-difluorophenyl)amino]ethyl}amino)acetic acid] | < 100
